The values that follow come from US20250147006A1, “MULTI-DEPTH SPIRAL MILLI FLUIDIC DEVICE FOR WHOLE MOUNT ZEBRAFISH ANTIBODY STAINING” (THE REGENTS OF THE UNIVERSITY OF CALIFORNIA, priority 2023, published 2025).

Values after ≈ are worked out from the molar mass of the structure shown. Read-outs that look alike come from different tables or passages of the source.

Data set [1] has as its system zebrafish embryos. As to the kind of experiment: animal or person. As to conditions: Danio rerio, 2 h, read-out: absolute EC50 (50% effective concentration), tail curvature.
The test system of data set [2] is zebrafish embryos. The conditions noted are these: 24-well plate.
In data set [3] the test system is zebrafish embryos. As to conditions: for EC50: Danio rerio, 2 h.

On to `Cn1c(=O)c2c(ncn2C)n(C)c1=O` [caffeine], for which the EC50 in the data set on zebrafish embryos [1] was 690 µg/mL (≈ 3.56 mM); in the data set with zebrafish embryos [3] (read-out: absolute EC50, tail curvature, CGG, measured concentrations (trypan blue intensity), highest inner wall inlet flowrate (150 μl/min), outer wall 300 μl/min, 2-hour treatment) it was 987 µg/mL (≈ 5.08 mM); in the data set with zebrafish embryos [3] (read-out: absolute EC50, tail curvature, CGG, measured concentrations (trypan blue intensity), lowest inner wall inlet flowrate (75 μl/min), outer wall 300 μl/min, 2-hour treatment), 993 µg/mL (≈ 5.11 mM); in the data set with zebrafish embryos [3] (read-out: absolute EC50, tail curvature, CGG, measured concentrations (trypan blue intensity), middle inner wall inlet flowrate (100 μl/min), outer wall 300 μl/min, 2-hour treatment), 1080 µg/mL (≈ 5.56 mM); with zebrafish embryos [3] (read-out: absolute EC50, tail curvature, CGG, simulated concentrations, highest inner wall inlet flowrate (150 μl/min), outer wall 300 μl/min, 2-hour treatment) it was 1210 µg/mL (≈ 6.22 mM); in the data set on zebrafish embryos [3] (read-out: absolute EC50, tail curvature, CGG, simulated concentrations, lowest inner wall inlet flowrate (75 μl/min), outer wall 300 μl/min, 2-hour treatment), 1180 µg/mL (≈ 6.05 mM). Also, in the data set with zebrafish embryos [3] (read-out: absolute EC50, tail curvature, CGG, simulated concentrations, middle inner wall inlet flowrate (100 μl/min), outer wall 300 μl/min, 2-hour treatment), the EC50 was 1220 µg/mL (≈ 6.28 mM). Besides, the “frequency of tail curvature (scoliosis)” value in the data set with zebrafish embryos [2] (after 2-hour caffeine treatment) is on record as “concentration dependent”. In addition, the “recovery of embryos with tail curvature” value in the data set on zebrafish embryos [2] (after 24 hours culturing in E3 buffer) was “recovered to normal”. Besides, the “zebrafish embryo survival rate at the end of the experiment” value in the data set with zebrafish embryos [2] (all caffeine concentrations 0.0325-2 mg/mL, 2-hour treatment and 24-hour recovery) is “over 90%”. The “zebrafish embryo survival rate” value in the data set on zebrafish embryos [3] (CGG, 2-hour treatment and 24-hour recovery, compared with well plate) was “close to the zebrafish embryo tested in the well plate”. The “hillslope of dose-response curves, tail curvature” value in the data set on zebrafish embryos [3] (CGG, 3 gradients, 2-hour treatment, compared with well plate) is reported as “greater than the hillslope of well plate-based dose-response curves”. Moreover, in the data set on zebrafish embryos [3] (CGG, after 24-hour recovery at 2 ml/min, compared with well plate), the “overall frequency of edema occurrences” value is on record as “significantly higher in the CGG than in the well plate”.
